The numbers were not newly measured in US20060110477A1, “Composition and method for supporting and promoting healthy sexual function and prevention and treatment of sexual dysfunction” (priority 2004, published 2006), which cites them from elsewhere.

The target in the data set is rat cGMP-specific PDE5 (Rattus norvegicus, UniProt O54735).

As to `COc1cc(O)c(CC=C(C)C)c2oc(-c3ccc(O)cc3)c(O)c(=O)c12` [sophoflavescenol], the “relative potency against cGMP PDE5” value (among the flavonols in the ethyl acetate fraction) is on record as “most potent”. Besides, for the setting “selectivity between PDE isoforms”, the “IC50 ratio PDE4/PDE5” value is 196.2.
